# What was measured:
# Format in all cases: cell-based
# MRGPRX2 [1] = biological target: T1, MRGPRX2 (Homo sapiens, UniProt Q96LB1); assay: MRGPRX2 β-Arrestin assay; design: host or cells: PathHunter CHO-K1; conditions: PathHunter CHO-K1 MRGPRX2 β-Arrestin cell line; agonist Cortistatin 14 0.25 μM
# T1 sequence (Q96LB1 1-330): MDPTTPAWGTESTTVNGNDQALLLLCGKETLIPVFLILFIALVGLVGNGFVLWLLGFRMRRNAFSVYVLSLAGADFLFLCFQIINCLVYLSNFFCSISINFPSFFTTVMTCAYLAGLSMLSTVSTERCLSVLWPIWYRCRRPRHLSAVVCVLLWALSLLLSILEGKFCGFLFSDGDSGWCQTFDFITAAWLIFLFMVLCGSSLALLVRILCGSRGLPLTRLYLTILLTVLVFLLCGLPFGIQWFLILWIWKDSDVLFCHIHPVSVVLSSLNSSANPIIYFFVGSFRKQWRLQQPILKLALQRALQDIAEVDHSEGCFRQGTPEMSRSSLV
# From the text: Example C: MRGPRX2 β-Arrestin Assay
# This assay measures compound inhibition of β-Arrestin recruitment, which is part of the G protein-independent pathway that results from the ligand-activated GPCR phosphorylation by specific GPCR kinases. The PathHunter CHO-K1 MRPGRX2 B-Arrestin Cell line stably expressing ProLink tagged MRGPRX2 and Enzyme Acceptor Tagged B-Arrestin was purchased from Eurofins DiscoverX, (Fremont, CA).
# The cells were maintained in culture medium from the Europhins DiscoverX Cell Culture Kit-107 which includes FBS, hygromycin B and G418. For the assay, the cells were harvested and were resuspended with Cell Plating Reagent 2 (Eurofins DiscoverX). Cells were added 10000 cells in 25 µL/well to a 384-well black cell culture plate (Greiner VWR, Radnor, PA) which contained 125 nL/well of compound at a selected serially diluted concentration range or DMSO. The plate was incubated at 37° C. with 5% CO2 for 1 h. 2 μL/well of agonist Cortistatin 14 was diluted in Protein Dilution Buffer, (Eurofins DiscoverX) for a final concentration of 0.25 μM, was added and the plate was incubated at 37° C. with 5% CO2 for 90 min. 14 μL/well of Detection Reagent Mix (PathHunter Detection Kit, Eurofins DiscoverX) was added to the plates and further incubated for 1 h in the dark. Plates were read on the PHERAstar microplate reader (BMG Labtech Cary, NC) measuring luminescence 0.1 to 1 second per well. Data was normalized using DMSO only wells and wells with high concentration of reference antagonist as controls. Compound IC50 curves were globally fitted with 3- or 4-parameter Hill equation in a Genedata Screener (Genedata Basel, Switzerland).
# MRGPRX2 [2] = biological target: T1, MRGPRX2; assay: MRGPRX2 FLIPR calcium mobilization assay; design: host or cells: CHO-K1; conditions: CHO-K1 cells stably expressing human MRGPRX2; Ca2+ release, agonist Cortistatin-14 at EC80
# Description: Example A. MRGPRX2 FLIPR Calcium Mobilization Assay
# Chinese hamster ovary (CHO-K1) cells stably expressing human MRGPRX2 were purchased from Genescript (Piscataway, NJ). The cells were maintained in culture medium (Ham's F-12K) containing 10% (v/v) FBS, 200 μg/mL Zeocin, 100 units/mL penicillin G and 100 μg/mL streptomycin (Life Technologies, Carlsbad, CA). For the assay, the cells were harvested and resuspended with culture medium without Zeocin before plating at 8000 cells per well in 20 μL in 384-well black clear bottom cell culture plates (VWR, Radnor, PA). After 24 h culture at 37° C. and 5% CO2, the cells were loaded with 20 μL/well of calcium dye (FLIPR Calcium 6 Assay Kit, Molecular Devices, San Jose, CA) diluted in loading buffer (1×Hank's Balanced Salt Solution (HBSS), 5 mM probenecid, 20 mM 4-(2-hydroxyethyl)-1-piperazineethanesulfonic acid (HEPES), pH 7.4, VWR, Radnor, PA) followed with 45 min incubation at 37° C. and 40 min at room temperature in the dark. Cells were then treated with the addition of 10 uL/well test compounds with a range of increasing concentrations diluted in the assay buffer (1×HBSS, 20 mM HEPES, pH 7.4, VWR, Radnor, PA) with FLIPR Penta (Molecular Devices. San Jose, CA) and incubated for 30 min. at room temperature. Ca^2+ release was measured with FLIPR Penta with 10 seconds basal fluorescence measurement, then 12.5 μL of 5× agonist Cortistatin-14 (Tocris, Minneapolis, MN) at final concentration corresponding to the EC80 were added followed with continued fluorescence signal monitoring for an additional 110 seconds. The base line adjusted (median of first 10s base line) max value of the Relative Fluorescence Unit (RFU) was plotted against compound concentrations. Wells with no compound were served as the positive controls, and wells with high concentration of reference antagonist were used as negative controls. IC50 curves were globally fitted with 3- or 4-parameter Hill equation in a Genedata Screener (Genedata Basel, Switzerland).
# MRGPRX2 [3] = biological target: T1, MRGPRX2; assay: MRGPRX2 IP1 HTRF assay; design: host or cells: CHO-K1; conditions: CHO-K1 cells stably expressing human MRGPRX2; IP1 accumulation, agonist Cortistatin 14 1 μM
# From the text: Example B: MRGPRX2 IP1 HTRF Assay
# This assay measures compound inhibition of myo-Inositol 1 phosphate (IP1) accumulation in CHO-K1 cells. Chinese hamster ovary (CHO-K1) cells stably expressing human MRGPRX2 were purchased from GenScript (Piscataway, NJ).
# For the HTRF IP1 determination, an IP-One GqKit (Perkin Elmer Cisbio, Waltham, MA), which includes all reagents and buffers in this protocol, was used. The cells were maintained in culture medium (Ham's F-12K) containing 10% (v/v) FBS, and 200 μg/mL Zeocin. For the assay, the cells were harvested and resuspended in culture medium with 2% FBS and without Zeocin, then were passed through a 40 μm filter. Cells were added at 20000 cells in a 5 μL/well to a 384-well white small volume cell culture plate (Greiner VWR, Radnor, PA) which contained 50 nL/well of test compound serially diluted at a selected concentration range in DMSO. 5 μL/well of prepared 2× Stimulation Buffer2 was then added to plates and was incubated at 37° C. with 5% CO2 for 1 h. 5 μL/well of agonist Cortistatin 14 (Bio-TechneR&D Systems, Minneapolis, MN) in 1× Stimulation Buffer 2, for a 1 μM final concentration, was then added to plates and incubated at 37° C. with 5% CO2 for 1 h. 6 μL/well of 1:20 diluted Detection Reagent Mix (d2 and Cryptate) was added to the plates and incubated for 1 h in the dark. Plates were read on the PHERAstar microplate reader (BMG Labtech Cary, NC) to determine the HTRF ratio of the acceptor and donor emission signals. The IP1 concentrations were calculated from a standard curve following the IP-One GQ kit instructions. Wells with DMSO only and wells with high concentration of reference antagonist were used as controls for normalization. Compound IC50 curves were globally fitted with 3- or 4-parameter Hill equation in a Genedata Screener (Genedata Basel, Switzerland).
SMILES,IC50 (MRGPRX2 [1]) [µM],IC50 (MRGPRX2 [2]) [µM],IC50 (MRGPRX2 [3]) [µM]
"O=C(N[C@@H]1CC[C@@H](O)C1)N1CC(CNc2cc(C(F)(F)F)nc3ccc(Cl)cc23)(c2ccc(F)cc2)C1 [Example 90, 3-(((6-Chloro-2-(trifluoromethyl)quinolin-4-yl)amino)methyl)-3-(4-fluorophenyl)-N-((1R,3R)-3-hydroxycyclopentyl)azetidine-1-carboxamide]",0.0001 to 0.1,,0.0001 to 0.1
"N#C[C@H]1CC[C@H](NC(=O)N2CC(CNc3cc(C(F)(F)F)nc4ccc(Cl)cc34)(c3ccc(F)cc3)C2)CC1 [Example 91, 3-(((6-Chloro-2-(trifluoromethyl)quinolin-4-yl)amino)methyl)-N-((1r,4r)-4-cyanocyclohexyl)-3-(4-fluorophenyl)azetidine-1-carboxamide]",0.0001 to 0.1,,0.0001 to 0.1
"Fc1ccc(C2(CNc3cc(C(F)(F)F)nc4ccc(Cl)cc34)CN(Cc3cn[nH]c3)C2)cc1 [Example 93, N-((1-((1H-Pyrazol-4-yl)methyl)-3-(4-fluorophenyl)azetidin-3-yl)methyl)-6-chloro-2-(trifluoromethyl)quinolin-4-amine]",0.0001 to 0.1,,0.0001 to 0.1
"Cc1nc(CN2CC(CNc3cc(C(F)(F)F)nc4ccc(Cl)cc34)(c3ccc(F)cc3)C2)c[nH]1 [Example 94, 6-Chloro-N-((3-(4-fluorophenyl)-1-((2-methyl-1H-imidazol-4-yl)methyl)azetidin-3-yl)methyl)-2-(trifluoromethyl)quinolin-4-amine]",0.0001 to 0.1,,0.0001 to 0.1
"[O-][n+]1ccc(CN2CC(CNc3cc(C(F)(F)F)nc4ccc(Cl)cc34)(c3ccc(F)cc3)C2)cc1 [Example 95, 4-((3-(((6-Chloro-2-(trifluoromethyl)quinolin-4-yl)amino)methyl)-3-(4-fluorophenyl)azetidin-1-yl)methyl)pyridine 1-oxide]",0.0001 to 0.1,,0.0001 to 0.1
"NC1CC(CNc2cc(C(F)(F)F)nc3ccc(Cl)cc23)(c2ccccc2)C1 (stereo not shown) [Example 96, N-((3-Amino-1-phenylcyclobutyl)methyl)-6-chloro-2-(trifluoromethyl)quinolin-4-amine]",0.0001 to 0.1,,0.0001 to 0.1
"[2H]C([2H])([2H])NC(=O)N1CC(CNc2cc(C(F)(F)F)nc3ccc(Br)cc23)(n2cc(F)cn2)C1 [Example 97, 3-(((6-Bromo-2-(trifluoromethyl)quinolin-4-yl)amino)methyl)-3-(4-fluoro-1H-pyrazol-1-yl)-N-(methyl-d3)azetidine-1-carboxamide]",0.0001 to 0.1,,0.0001 to 0.1

# Results, then the molecule that gave them:
IC50 (MRGPRX2 [1]) [µM],IC50 (MRGPRX2 [2]) [µM],IC50 (MRGPRX2 [3]) [µM],SMILES
0.0001 to 0.1,0.0001 to 0.1,0.0001 to 0.1,"NS(=O)(=O)N1CC(CNc2cc(C(F)(F)F)nc3ccc(C(F)(F)F)cc23)(c2ccc(F)cc2)C1 [Example 1, 3-(((2,6-Bis(trifluoromethyl)quinolin-4-yl)amino)methyl)-3-(4 fluorophenyl)azetidine-1-sulfonamide]"
0.0001 to 0.1,,0.0001 to 0.1,"NC(=O)C1(C(=O)NC2CC(CNc3cc(C(F)(F)F)nc4ccc(Cl)cc34)(c3ccccc3)C2)CC1 (stereo not shown) [Example 74, N-(3-(((6-Chloro-2-(trifluoromethyl)quinolin-4-yl)amino)methyl)-3-phenylcyclobutyl)cyclopropane-1,1-dicarboxamide]"
0.0001 to 0.1,0.0001 to 0.1,,"Nc1nc(N2CCC(CNc3cc(C(F)(F)F)nc4ccc(Cl)cc34)(c3ccccc3)CC2)nn1CCN1CCOCC1 [Example 79, N-((1-(5-Amino-1-(2-morpholinoethyl)-1H-1,2,4-triazol-3-yl)-4-phenylpiperidin-4-yl)methyl)-6-chloro-2-(trifluoromethyl)quinolin-4-amine]"
0.0001 to 0.1,0.0001 to 0.1,,"NS(=O)(=O)N1CC(CNc2cc(C(F)(F)F)nc3ccc(Cl)cc23)(c2nc3cc(F)ccc3s2)C1 [Example 85, 3-(((6-Chloro-2-(trifluoromethyl)quinolin-4-yl)amino)methyl)-3-(5-fluorobenzo[d]thiazol-2-yl)azetidine-1-sulfonamide]"
0.0001 to 0.1,,0.0001 to 0.1,"O=C(N[C@H]1C[C@H](O)C1)N1CCC(CNc2cc(C(F)(F)F)nc3ccc(Cl)cc23)(c2ccc(F)cc2)CC1 [Example 86, 4-(((6-Chloro-2-(trifluoromethyl)quinolin-4-yl)amino)methyl)-4-(4-fluorophenyl)-N-((1r,3r)-3-hydroxycyclobutyl) piperidine-1-carboxamide]"
0.0001 to 0.1,,0.0001 to 0.1,"O=C(N[C@H]1CC[C@H](O)CC1)N1CCC(CNc2cc(C(F)(F)F)nc3ccc(Cl)cc23)(c2ccc(F)cc2)CC1 [Example 87, 4-(((6-Chloro-2-(trifluoromethyl)quinolin-4-yl)amino)methyl)-4-(4-fluorophenyl)-N-((1r,4r)-4-hydroxycyclohexyl) piperidine-1-carboxamide]"
0.0001 to 0.1,,0.0001 to 0.1,"O=C(N[C@H]1CC[C@H](O)CC1)N1CC(CNc2cc(C(F)(F)F)nc3ccc(Cl)cc23)(n2cc(F)cn2)C1 [Example 88, 3-(((6-Chloro-2-(trifluoromethyl)quinolin-4-yl)amino)methyl)-3-(4-fluoro-1H-pyrazol-1-yl)-N-((1r,4r)-4-hydroxycyclohexyl)azetidine-1-carboxamide]"
0.0001 to 0.1,,0.0001 to 0.1,"C[C@]1(O)CC[C@@H](NC(=O)N2CC(CNc3cc(C(F)(F)F)nc4ccc(Cl)cc34)(n3cc(F)cn3)C2)CC1 [Example 89, 3-(((6-Chloro-2-(trifluoromethyl)quinolin-4-yl)amino)methyl)-3-(4-fluoro-1H-pyrazol-1-yl)-N-((1s,4s)-4-hydroxy-4-methylcyclohexyl)azetidine-1-carboxamide]"
